According to patent publication US20250297998A1, “SYSTEM AND METHODS FOR MEASURING AIRBORNE GLYCOL” (Grignard Pure LLC, priority 2022, published 2025):

Assays:
[1] = Visual appearance and odor; assay type: physicochemical
Text: (§1) As a non-limiting example, the sanitizing formulation can include 52.25% TEG by weight, 1.00% PG by weight, and 46.75% water (e.g., deionized water) by weight. The properties of this particular example of the sanitizing formulation (and pure TEG as a comparative reference) is summarized in the table below

PLTL-15 Odor Test = assay type: physicochemical
Text: as §1

[2] = ASTM D4052 specific gravity; assay type: physicochemical
Text: as §1

ASTM D1120 boiling point = assay type: physicochemical
Text: as §1

ASTM D93 flash point = assay type: physicochemical
Text: as §1

ASTM D323 vapor pressure = assay type: physicochemical; settings: @ 20° C.
Text: as §1

[3] = ASTM D445 kinematic viscosity; assay type: physicochemical
Text: as §1

ASTM D117 freeze point = assay type: physicochemical
Text: as §1

[4] = cited from earlier work

- Appearance and Odor [1]: Clear/Uniform
- Odor Test (PLTL-15 Odor Test): No Odor
- Specific Gravity @ 20° C. [2]: 1.12-1.13
- Boiling Point (° C.) (ASTM D1120 boiling point): 285° ° C.
- Flash Point (° C.) (ASTM D93 flash point): 157° ° C.
- Vapor Pressure (psi) (ASTM D323 vapor pressure): 0.0 psi @ 20 °C
- Viscosity, Kinematic @ 40° C. [3]: 42.3 cSt
- Freeze Point ° C. (ASTM D117 freeze point): −7.0° ° C.
SMILES: OCCOCCOCCO [Pure TEG, triethylene glycol]
- flash point ([4]; TEG alone, flammable liquid): 157 °C
- boiling point ([4]; at a pressure of 101.325 kPa): 286.5 °C
